# Measured values from PubChem BioAssay (NCI).
#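 Here, GI50 denotes the concentration required for 50% inhibition of growth. Definition used: TGI = concentration required for complete inhibition of growth.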
# What was measured:
# Assay in all cases: NCI anticancer screen, dose series, 384-well format
# SW-620 colon = test system: SW-620 colon
# SK-MEL-2 melanoma = test system: SK-MEL-2 melanoma
# HOP-92 NSCLC = test system: HOP-92 NSCLC
# PC-3 prostate = test system: PC-3 prostate
# HOP-62 NSCLC = test system: HOP-62 NSCLC
# SF-295 CNS = test system: SF-295 CNS
# LOX IMVI melanoma = test system: LOX IMVI melanoma
# NCI/ADR-RES ovarian = test system: NCI/ADR-RES ovarian
# UACC-62 melanoma = test system: UACC-62 melanoma
# IGROV1 ovarian = test system: IGROV1 ovarian
# MOLT-4 leukemia = test system: MOLT-4 leukemia
# SF-268 CNS = test system: SF-268 CNS
# HL-60(TB) leukemia = test system: HL-60(TB) leukemia
# HT29 colon = test system: HT29 colon
# SNB-19 CNS = test system: SNB-19 CNS
# HS 578T breast = test system: HS 578T breast
# SK-MEL-28 melanoma = test system: SK-MEL-28 melanoma
# OVCAR-5 ovarian = test system: OVCAR-5 ovarian
# SR leukemia = test system: SR leukemia
# CCRF-CEM leukemia = test system: CCRF-CEM leukemia
# NCI-H460 NSCLC = test system: NCI-H460 NSCLC
# K-562 leukemia = test system: K-562 leukemia
# MDA-MB-468 breast = test system: MDA-MB-468 breast
# ACHN renal = test system: ACHN renal
# BT-549 breast = test system: BT-549 breast
# M14 melanoma = test system: M14 melanoma
# HCT-116 colon = test system: HCT-116 colon
# SK-OV-3 ovarian = test system: SK-OV-3 ovarian
# KM12 colon = test system: KM12 colon
# SF-539 CNS = test system: SF-539 CNS
# SN12C renal = test system: SN12C renal
# HCC-2998 colon = test system: HCC-2998 colon
# U251 glioblastoma = test system: U251 glioblastoma
# A549 NSCLC = test system: A549 NSCLC
# RXF 393 renal = test system: RXF 393 renal
# NCI-H226 lung = test system: NCI-H226 lung
# OVCAR-3 ovarian = test system: OVCAR-3 ovarian
# TK-10 renal = test system: TK-10 renal
# UO-31 renal = test system: UO-31 renal
# MALME-3M melanoma = test system: MALME-3M melanoma
# SK-MEL-5 melanoma = test system: SK-MEL-5 melanoma
# MCF7 breast = test system: MCF7 breast
# OVCAR-8 ovarian = test system: OVCAR-8 ovarian
# OVCAR-4 ovarian = test system: OVCAR-4 ovarian
# HCT-15 colon = test system: HCT-15 colon
# COLO 205 colon = test system: COLO 205 colon
# 786-0 renal = test system: 786-0 renal
# MDA-MB-231 breast = test system: MDA-MB-231 breast
# NCI-H23 lung = test system: NCI-H23 lung
# A498 renal = test system: A498 renal
# SNB-75 CNS = test system: SNB-75 CNS
# MDA-MB-435 melanoma = test system: MDA-MB-435 melanoma
# EKVX NSCLC = test system: EKVX NSCLC
# NCI-H322M lung = test system: NCI-H322M lung
# NCI-H522 lung = test system: NCI-H522 lung
# UACC-257 melanoma = test system: UACC-257 melanoma
# CAKI-1 renal = test system: CAKI-1 renal
# RPMI-8226 leukemia = test system: RPMI-8226 leukemia
structure (smiles),measurement,setting,value
C=CC(=O)Nc1cccc(C)c1Nc1ncc2cc(-c3c(Cl)c(OC)cc(OC)c3Cl)ccc2n1,GI50,SW-620 colon,2050 nM
same,TGI,SW-620 colon,6310 nM
same,GI50,SK-MEL-2 melanoma,894 nM
same,TGI,SK-MEL-2 melanoma,2200 nM
same,GI50,HOP-92 NSCLC,2250 nM
same,TGI,HOP-92 NSCLC,6440 nM
same,GI50,PC-3 prostate,1010 nM
same,TGI,PC-3 prostate,2600 nM
same,GI50,HOP-62 NSCLC,775 nM
same,TGI,HOP-62 NSCLC,2340 nM
same,GI50,SF-295 CNS,2770 nM
same,TGI,SF-295 CNS,10500 nM
same,GI50,LOX IMVI melanoma,1380 nM
same,TGI,LOX IMVI melanoma,2740 nM
same,GI50,NCI/ADR-RES ovarian,2030 nM
same,TGI,NCI/ADR-RES ovarian,4950 nM
same,GI50,UACC-62 melanoma,1750 nM
same,TGI,UACC-62 melanoma,4900 nM
same,GI50,IGROV1 ovarian,2760 nM
same,TGI,IGROV1 ovarian,7890 nM
same,GI50,MOLT-4 leukemia,736 nM
same,TGI,MOLT-4 leukemia,2130 nM
same,GI50,SF-268 CNS,1550 nM
same,TGI,SF-268 CNS,3810 nM
same,GI50,HL-60(TB) leukemia,1100 nM
same,TGI,HL-60(TB) leukemia,2380 nM
same,GI50,HT29 colon,2440 nM
same,TGI,HT29 colon,9750 nM
same,GI50,SNB-19 CNS,2000 nM
same,TGI,SNB-19 CNS,7720 nM
same,GI50,HS 578T breast,1260 nM
same,TGI,HS 578T breast,3180 nM
same,GI50,SK-MEL-28 melanoma,2590 nM
same,TGI,SK-MEL-28 melanoma,8300 nM
same,GI50,OVCAR-5 ovarian,4440 nM
same,TGI,OVCAR-5 ovarian,> 100000 nM
same,GI50,SR leukemia,348 nM
same,TGI,SR leukemia,1540 nM
same,GI50,CCRF-CEM leukemia,1340 nM
same,TGI,CCRF-CEM leukemia,2650 nM
same,GI50,NCI-H460 NSCLC,717 nM
same,TGI,NCI-H460 NSCLC,2090 nM
same,GI50,K-562 leukemia,1390 nM
same,TGI,K-562 leukemia,3210 nM
same,GI50,MDA-MB-468 breast,207 nM
same,TGI,MDA-MB-468 breast,1600 nM
same,GI50,ACHN renal,2930 nM
same,TGI,ACHN renal,23700 nM
same,GI50,BT-549 breast,843 nM
same,TGI,BT-549 breast,2440 nM
same,GI50,M14 melanoma,3570 nM
same,TGI,M14 melanoma,12900 nM
same,GI50,HCT-116 colon,1730 nM
same,TGI,HCT-116 colon,3890 nM
same,GI50,SK-OV-3 ovarian,1690 nM
same,TGI,SK-OV-3 ovarian,17000 nM
same,GI50,KM12 colon,1930 nM
same,TGI,KM12 colon,5200 nM
same,GI50,SF-539 CNS,615 nM
same,TGI,SF-539 CNS,1930 nM
same,GI50,SN12C renal,2330 nM
same,TGI,SN12C renal,7560 nM
same,GI50,HCC-2998 colon,2000 nM
same,TGI,HCC-2998 colon,4830 nM
same,GI50,U251 glioblastoma,1520 nM
same,TGI,U251 glioblastoma,3740 nM
same,GI50,A549 NSCLC,2120 nM
same,TGI,A549 NSCLC,7940 nM
same,GI50,RXF 393 renal,573 nM
same,TGI,RXF 393 renal,1970 nM
same,GI50,NCI-H226 lung,1110 nM
same,TGI,NCI-H226 lung,6080 nM
same,GI50,OVCAR-3 ovarian,1100 nM
same,TGI,OVCAR-3 ovarian,2940 nM
same,GI50,TK-10 renal,1980 nM
same,TGI,TK-10 renal,5920 nM
same,GI50,UO-31 renal,2230 nM
same,TGI,UO-31 renal,6740 nM
same,GI50,MALME-3M melanoma,2530 nM
same,TGI,MALME-3M melanoma,9940 nM
same,GI50,SK-MEL-5 melanoma,1460 nM
same,TGI,SK-MEL-5 melanoma,3380 nM
same,GI50,MCF7 breast,1370 nM
same,TGI,MCF7 breast,> 100000 nM
same,GI50,OVCAR-8 ovarian,1480 nM
same,TGI,OVCAR-8 ovarian,3000 nM
same,GI50,OVCAR-4 ovarian,2780 nM
same,TGI,OVCAR-4 ovarian,14300 nM
same,GI50,HCT-15 colon,1940 nM
same,TGI,HCT-15 colon,4930 nM
same,GI50,COLO 205 colon,2010 nM
same,TGI,COLO 205 colon,12200 nM
same,GI50,786-0 renal,1290 nM
same,TGI,786-0 renal,5330 nM
same,GI50,MDA-MB-231 breast,1890 nM
same,TGI,MDA-MB-231 breast,5640 nM
same,GI50,NCI-H23 lung,1840 nM
same,TGI,NCI-H23 lung,5120 nM
same,GI50,A498 renal,614 nM
same,TGI,A498 renal,2030 nM
same,GI50,SNB-75 CNS,1120 nM
same,TGI,SNB-75 CNS,3800 nM
same,GI50,MDA-MB-435 melanoma,2170 nM
same,TGI,MDA-MB-435 melanoma,5350 nM
same,GI50,EKVX NSCLC,1840 nM
same,TGI,EKVX NSCLC,4550 nM
same,GI50,NCI-H322M lung,2630 nM
same,TGI,NCI-H322M lung,9020 nM
same,GI50,NCI-H522 lung,1300 nM
same,TGI,NCI-H522 lung,3010 nM
same,GI50,UACC-257 melanoma,1180 nM
same,TGI,UACC-257 melanoma,3350 nM
same,GI50,CAKI-1 renal,2060 nM
same,TGI,CAKI-1 renal,13600 nM
same,GI50,RPMI-8226 leukemia,276 nM
same,TGI,RPMI-8226 leukemia,1260 nM
